Experimental findings from ChEMBL document CHEMBL2331312, “Dimerized linear mimics of a natural cyclopeptide (TMC-95A) are potent noncovalent inhibitors of the eukaryotic 20S proteasome” (J Med Chem, 2013) are described below.

Calls of active or inactive are those of the source. The rule behind the calls is not given here.

The target in experiment [1] is Cathepsin B (Homo sapiens) (UniProt P07858). The experiment can be described thus: Inhibition of human cathepsin B using Suc-LLVY-AMC as substrate assessed as remaining enzyme activity at 20 uM incubated for 15 mins prior to substrate addition measured for 30 mins by fluorescence assay.
Experiment [2] concerns the target T1, Calpain-1 catalytic subunit (Homo sapiens) (UniProt P07384).
T1 sequence (whole entry): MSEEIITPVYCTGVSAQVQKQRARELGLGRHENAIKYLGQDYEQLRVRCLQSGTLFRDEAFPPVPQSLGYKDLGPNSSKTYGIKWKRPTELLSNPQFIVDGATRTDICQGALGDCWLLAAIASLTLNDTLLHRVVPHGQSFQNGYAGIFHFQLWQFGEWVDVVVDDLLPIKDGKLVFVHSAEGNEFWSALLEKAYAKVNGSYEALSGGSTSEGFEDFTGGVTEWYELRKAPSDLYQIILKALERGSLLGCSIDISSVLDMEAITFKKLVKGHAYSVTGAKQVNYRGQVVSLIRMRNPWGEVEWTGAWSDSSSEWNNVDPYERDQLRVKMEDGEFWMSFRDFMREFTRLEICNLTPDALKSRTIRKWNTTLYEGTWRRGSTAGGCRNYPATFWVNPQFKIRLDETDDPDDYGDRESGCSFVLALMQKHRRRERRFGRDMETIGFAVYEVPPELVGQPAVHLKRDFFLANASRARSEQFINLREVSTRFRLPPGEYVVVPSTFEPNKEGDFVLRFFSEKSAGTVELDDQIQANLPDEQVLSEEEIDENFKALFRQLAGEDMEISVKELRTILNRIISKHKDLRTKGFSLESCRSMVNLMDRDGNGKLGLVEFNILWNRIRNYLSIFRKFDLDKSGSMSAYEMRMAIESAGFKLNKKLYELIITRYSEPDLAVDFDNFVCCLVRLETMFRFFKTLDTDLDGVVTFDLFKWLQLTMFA
As to the kind of experiment: Inhibition of human calpain 1 using Suc-LLVY-AMC as substrate assessed as remaining enzyme activity at 20 uM incubated for 5 mins prior to substrate addition measured for 30 mins by fluorescence assay.

For experiment [3], the target named is T2, Proteasome Macropain subunit MB1 (Homo sapiens, UniProt P28074).
T2 sequence (P28074 whole entry): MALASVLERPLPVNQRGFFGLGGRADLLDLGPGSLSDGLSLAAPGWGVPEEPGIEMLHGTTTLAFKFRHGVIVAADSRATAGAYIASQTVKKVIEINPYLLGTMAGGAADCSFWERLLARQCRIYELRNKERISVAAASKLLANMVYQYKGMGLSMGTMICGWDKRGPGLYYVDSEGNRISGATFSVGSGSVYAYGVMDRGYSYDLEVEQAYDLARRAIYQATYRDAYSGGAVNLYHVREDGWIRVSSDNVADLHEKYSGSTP
The experiment can be described thus: Noncompetitive inhibition of chymotrypsin-like activity of human constitutive 20s proteasome beta-5 subunit using Suc-LLVY-AMC as substrate assessed as inhibition constant for dissociation of enzyme-substrate-inhibitor complex incubated for 15 mins prior to substrate addition measured after 45 mins by fluorescence assay.

Experiment [4] concerns the target T2, Proteasome Macropain subunit MB1. The experiment can be described thus: Noncompetitive inhibition of chymotrypsin-like activity of human constitutive 20s proteasome beta-5 subunit using Suc-LLVY-AMC as substrate assessed as inhibition constant for dissociation of enzyme-inhibitor complex incubated for 15 mins prior to substrate addition measured after 45 mins by fluorescence assay.

Experiment [5] has as its target Proteasome Macropain subunit (Homo sapiens, UniProt P49721). The experiment can be described thus: Inhibition of trypsin-like activity of human constitutive 20s proteasome beta-2 subunit using Boc-LRR-AMC as substrate assessed as remaining activity incubated for 15 mins prior to substrate addition measured after 45 mins by fluorescence assay.
The target of experiment [6] is T2, Proteasome Macropain subunit MB1.
Description: Inhibition of chymotrypsin-like activity of human constitutive 20s proteasome beta-5 subunit using Suc-LLVY-AMC as substrate assessed as remaining activity incubated for 15 mins prior to substrate addition measured after 45 mins by fluorescence assay
The target in experiment [7] is T3, Proteasome Macropain subunit PRE2 (Saccharomyces cerevisiae S288c, UniProt P30656).
T3 sequence (P30656 whole entry): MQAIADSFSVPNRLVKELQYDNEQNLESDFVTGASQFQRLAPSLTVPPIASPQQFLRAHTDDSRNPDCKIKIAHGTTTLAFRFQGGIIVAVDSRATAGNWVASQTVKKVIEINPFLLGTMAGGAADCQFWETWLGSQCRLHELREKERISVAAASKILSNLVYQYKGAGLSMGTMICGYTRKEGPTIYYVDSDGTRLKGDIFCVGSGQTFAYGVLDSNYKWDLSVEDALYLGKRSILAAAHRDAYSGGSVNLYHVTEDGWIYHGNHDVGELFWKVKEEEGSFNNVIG
Description: Inhibition of chymotrypsin-like activity of yeast 20S proteasome beta-5 subunit using Suc-LLVY-AMC as substrate measured up to 45 mins by fluorescence assay

Sequence of Proteasome Macropain subunit (P49721 whole entry): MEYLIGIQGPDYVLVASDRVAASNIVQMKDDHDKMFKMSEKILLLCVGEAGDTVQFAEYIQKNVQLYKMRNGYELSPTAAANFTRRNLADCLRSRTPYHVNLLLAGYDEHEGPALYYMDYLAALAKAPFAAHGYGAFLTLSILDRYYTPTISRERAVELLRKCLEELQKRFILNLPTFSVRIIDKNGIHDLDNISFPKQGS

As usually defined, the Ki is the dissociation constant of the complex between target and ligand, obtained from inhibition or displacement. Usually IC50 stands for the concentration at which inhibition is half-maximal. With `C[C@H](NC(=O)[C@@H](N)Cc1ccc(OCc2ccccc2)cc1)C(=O)N[C@@H](C[C@]1(O)C(=O)Nc2ccccc21)C(=O)NCc1ccccc1`, the inhibition result in experiment [1] and in experiment [2] was “inactive” in each case. For the same compound, the Ki in experiment [3] and in experiment [4] was 24.5 µM in each case. The 50% inhibitory concentration (IC50) result in experiment [5] was “Not Active”; in experiment [6], 11.6 µM; in experiment [7] it was 9.4 µM.
